According to PMC6345968, “Structural basis for species-selective targeting of Hsp90 in a pathogenic fungus” (Nature Communications, 2019):

Key:
human Hsp90 [1] = molecular target: human Hsp90; parameters: method as in Owen, B. A. L. et al. J. Biol. Chem. 277, 7086–7091 (2002); conditions: ref Owen, B. A. L. et al. J. Biol. Chem. 277, 7086–7091 (2002); read-out: Kd for ATP; cited from earlier work
human Hsp90 [2] = conditions: read-out: Km (ATP); ref Owen, B. A. L. et al. J. Biol. Chem. 277, 7086–7091 (2002); cited from earlier work
S. cerevisiae Hsp90 [3] = molecular target: S. cerevisiae Hsp90; parameters: method as in Owen, B. A. L. et al. J. Biol. Chem. 277, 7086–7091 (2002); conditions: ref Owen, B. A. L. et al. J. Biol. Chem. 277, 7086–7091 (2002); read-out: Kd for ATP; cited from earlier work
S. cerevisiae Hsp90 [4] = test system: S. cerevisiae Hsp90; parameters: method as in Owen, B. A. L. et al. J. Biol. Chem. 277, 7086–7091 (2002); conditions: ref Owen, B. A. L. et al. J. Biol. Chem. 277, 7086–7091 (2002); read-out: Km (ATP); cited from earlier work
C. albicans Hsp90 [5] = molecular target: T1, C. albicans Hsp90 (Candida albicans, UniProt P46598); experiment: ATP binding by intrinsic tryptophan fluorescence quenching; conditions: read-out: Kd for ATP; purified full-length Hsp90
T1 sequence (P46598 whole entry): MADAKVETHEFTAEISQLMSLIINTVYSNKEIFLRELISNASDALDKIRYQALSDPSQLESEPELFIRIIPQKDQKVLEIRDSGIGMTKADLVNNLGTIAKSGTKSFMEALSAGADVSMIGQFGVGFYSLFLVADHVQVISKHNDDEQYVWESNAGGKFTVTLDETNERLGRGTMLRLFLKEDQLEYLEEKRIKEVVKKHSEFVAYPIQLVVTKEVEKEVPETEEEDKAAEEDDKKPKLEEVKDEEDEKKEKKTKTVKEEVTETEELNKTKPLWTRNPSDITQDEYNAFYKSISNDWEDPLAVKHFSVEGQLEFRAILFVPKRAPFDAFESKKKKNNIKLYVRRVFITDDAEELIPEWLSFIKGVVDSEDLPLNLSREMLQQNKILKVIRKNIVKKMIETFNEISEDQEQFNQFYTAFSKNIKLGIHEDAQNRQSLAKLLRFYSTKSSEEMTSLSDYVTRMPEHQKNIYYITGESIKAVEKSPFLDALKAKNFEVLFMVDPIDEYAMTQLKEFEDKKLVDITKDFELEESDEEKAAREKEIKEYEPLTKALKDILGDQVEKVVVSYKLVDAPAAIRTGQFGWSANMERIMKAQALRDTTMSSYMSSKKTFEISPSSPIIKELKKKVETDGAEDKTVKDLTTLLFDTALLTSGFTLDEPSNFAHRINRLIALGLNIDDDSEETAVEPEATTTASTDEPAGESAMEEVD
Description: tryptophan fluorescence quenching by ligands.
Intrinsic tryptophan fluorescence was
Difference in intrinsic fluorescence of
assuming single-site specific binding.

C. albicans Hsp90 [6] = molecular target: T1, C. albicans Hsp90; experiment: ATPase activity, Michaelis-Menten / Lineweaver-Burk; assay type: biochemical; parameters: the core ATPase activity of purified full-length homodimers from each species; 6x-His (pRSET-A) (N); made in house; host or cells: E. coli RIL; conditions: γ-32P-labeled ATP
Description: 1151 Biochemical characterization of C. albicans Hsp90. a, Binding of C. albicans Hsp90 to its
1152 natural ligand ATP. b, Michaelis-Menten plot correlating the rate of ATP hydrolysis by C.
1153 albicans Hsp90 with concentration of substrate. Fractional cleavage of γ-32P-labeled ATP is
1154 plotted against ATP concentration. c, Lineweaver-Burk plot performed to define Km and kcat for
1155 the ATPase activity of C. albicans Hsp90. d, Comparison of parameters determined for C.
1156 albicans Hsp90 with previously published data for homologous human and yeast (S. cerevisiae)

[7] = test system: C. albicans reporter strain CaLC922; assay type: cell-based, Candida albicans; conditions: 6-h exposure
Description: In addition to effects on host immune function, we also examined activation of the evolutionarily conserved heat-shock response by CMLD013075.
Activation of the response in C. albicans was also measured in 96-well format using a reporter strain (CaLC922) engineered with HSP70 promoter elements driving expression of the LacZ gene from Streptococcus thermophilus integrated at the HSP70 locus with the URA3 marker for selection. […]

For Nc1ncnc2c1ncn2[C@@H]1O[C@H](COP(=O)(O)OP(=O)(O)OP(=O)(O)O)[C@@H](O)[C@H]1O [ATP], the Kd (human Hsp90 [1]) is given as 240 µM, the Km (human Hsp90 [2]) is given as 324 µM and the Kd (S. cerevisiae Hsp90 [3]) is given as 132 µM. For the same compound, the Km (S. cerevisiae Hsp90 [4]) was 511 µM, the Kd (C. albicans Hsp90 [5]) was 125 µM and the Km (C. albicans Hsp90 [6]) was 533 µM.

For CC(C)c1cc(-c2n[nH]c(=O)n2-c2ccc3c(ccn3C)c2)c(O)cc1O [ganetespib, reference compound], the heat-shock reporter activation [7] was “neither ganetespib nor radicicol induced the reporter to a measurable extent” and the heat-shock reporter activation (293T reporter cells) was “concentration-dependent reporter activation”.
